Source: patent US6395731B1, “Heterocyclic derivatives which inhibit Factor Xa” (Astrazeneca AB, priority 1998, dated 2002)
Counter-ions that a name gives are not always drawn.

melting point [°C]	SMILES
274 to 275	Nc1nc(-c2ccc(C(=O)N3CCN(S(=O)(=O)c4ccc5cc(Br)ccc5c4)CC3)cc2)c[nH]1 (as salt: salt) [Example 4, 1-(6-Bromonaphth-2-ylsulphonyl)-4-[4-(2-aminoimidazol-4-yl)benzoyl]piperazine]
215 to 216	Cc1nc(-c2ccc(C(=O)N3CCN(S(=O)(=O)c4ccc5cc(Br)ccc5c4)CC3)cc2)c[nH]1 [Example 3, 1-(6-Bromonaphth-2-ylsulphonyl)-4-[4-(2-methylimidazol-4-yl)benzoyl]piperazine]
